Assay results published in patent US20050192261A1, “Methods and reagents for the treatment of immunoinflammatory disorders” (priority 2003, published 2005).
Counter-ions that a name gives are not always drawn. Like-named read-outs stand apart in the source and are kept apart here.

Tested on: TNFα secretion in white blood cells from human buffy coat stimulated with phorbol 12-myristate 13-acetate and ionomycin
Assay: TNFα secretion assay
Conditions: for inhibition at 0.3 µM / inhibition at 19 µM / inhibition at 0.2 µM / inhibition at 0.4 µM / inhibition at 0.8 µM / inhibition at 13 µM / inhibition at 25 µM: Homo sapiens; for inhibition at 0.3 µM: read-out: % inhibition of TNFα secretion, Dipyridamole 0.3 μM; for inhibition at 19 µM: read-out: % inhibition of TNFα secretion, Dipyridamole 19 μM; for inhibition at 0.2 µM: read-out: percent inhibition of TNFα secretion, Amoxapine 0.2 μM; for inhibition at 0.4 µM: read-out: percent inhibition of TNFα secretion, Amoxapine 0.4 μM; for inhibition at 0.8 µM: read-out: percent inhibition of TNFα secretion, Amoxapine 0.8 μM; for inhibition at 13 µM: read-out: percent inhibition of TNFα secretion, Amoxapine 13 μM; for inhibition at 25 µM: read-out: percent inhibition of TNFα secretion, Amoxapine 25 μM
[1] = Bromodiphenhydramine HCl μM r5-r13: 0,0.21,0.43,0.85,1.7,3.4,6.8,14,27
[2] = Cyproheptadine HCl μM r5-r13: 0,0.24,0.48,0.96,1.9,3.9,7.7,15,31
[3] = Loratadine μM r5-r13: 0,0.2,0.41,0.82,1.6,3.3,6.5,13,26
[4] = Thiethylperazine Maleate μM r5-r13: 0,0.2,0.39,0.78,1.6,3.1,6.3,13,25
[5] = Bromodiphenhydramine HCl μM: 0/0.21/0.43/0.85/1.7/3.4/6.8/14/27
[6] = Cyproheptadine HCl μM: 0/0.24/0.48/0.96/1.9/3.9/7.7/15/31
[7] = Loratadine 0/0.2/0.41/0.82/1.6/3.3/6.5/13/26 μM
[8] = Thiethylperazine Maleate μM: 0/0.2/0.39/0.78/1.6/3.1/6.3/13/25

Procedure: Drugs were added to the indicated concentration. […] The plate was then washed again with 0.1% Tween 20/PBS. An HRP-luminescent substrate was added to each well, and the light intensity of each well was measured using a plate luminometer.

Question: What does the source list for OCCN(CCO)c1nc(N2CCCCC2)c2nc(N(CCO)CCO)nc(N3CCCCC3)c2n1 [Dipyridamole]?
Answer: inhibition at 0.3 µM [1]: 0.92%; inhibition at 0.3 µM [2]: -0.27%; inhibition at 0.3 µM [3]: 9.6%; inhibition at 0.3 µM [4]: 7%; inhibition at 19 µM [1]: 71%; inhibition at 19 µM [2]: 63%; inhibition at 19 µM [3]: 70%; inhibition at 19 µM [4]: 71%

Question: How did the inhibition at 0.2 µM [5] turn out when Clc1ccc2c(c1)C(N1CCNCC1)=Nc1ccccc1O2 [Amoxapine, amoxapine] was run?
Answer: 4.3%

Question: What about the inhibition at 0.2 µM [6] of the same compound?
Answer: 3.5%

Question: What about the inhibition at 0.2 µM [7] of the same compound?
Answer: 7.52%

Question: And the inhibition at 0.2 µM [8]?
Answer: 12%

Question: And the inhibition at 0.4 µM [5]?
Answer: 13%

Question: What about the inhibition at 0.4 µM [6] of the same compound?
Answer: 9.8%

Question: And the inhibition at 0.4 µM [7]?
Answer: 11.2%

Question: And the inhibition at 0.4 µM [8]?
Answer: 12%

Question: What about the inhibition at 0.8 µM [5] of the same compound?
Answer: 20%

Question: And the inhibition at 0.8 µM [6]?
Answer: 17%

Question: What about the inhibition at 0.8 µM [7] of the same compound?
Answer: 22.2%

Question: And the inhibition at 0.8 µM [8]?
Answer: 24%

Question: What about the inhibition at 13 µM [5] of the same compound?
Answer: 80%

Question: And the inhibition at 13 µM [6]?
Answer: 85%

Question: And the inhibition at 13 µM [7]?
Answer: 83.7%

Question: And the inhibition at 13 µM [8]?
Answer: 74%

Question: What about the inhibition at 25 µM [5] of the same compound?
Answer: 92%

Question: What about the inhibition at 25 µM [6] of the same compound?
Answer: 94%

Question: What about the inhibition at 25 µM [7] of the same compound?
Answer: 88.2%

Question: And the inhibition at 25 µM [8]?
Answer: 83%

Question: For COc1ccc(CN(CCN(C)C)c2ccccn2)cc1 [Pyrilamine Maleate], which “inhibition of TNFα secretion” value (prednisolone […], pyrilamine maleate r5-r13: 0,0.19,0.38,0.76,1.5,3,6.1,12,24 μM) is on record?
Answer: 20
